Test results reported in patent US20080015166A1, “Barrier Integrity in Hiv Patients” (N.V. Nutricia, priority 2004, published 2008).

Tests used:
[1] = tested on: intestinal epithelial cell lines T84 monolayers; assay: Effect of LC-PUFA on basal (spontaneous) barrier integrity: TER and 4 kD FITC dextran flux in T84 monolayers; type: cell-based, human; details: for effect on epithelial resistance (in words) / effect on molecular flux (in words): 100 μM, 72 hr, Table 1; for basal barrier integrity (TER), FIG. 1 (in words): time and dose (10 μM and 100 μM) dependent
Experimental: (§1) Monolayers (MC) of intestinal epithelial cell lines T84 (American Type Culture Collection (ATTC), Manassas, USA) were cultured on transwell filters (Corning, Costar B V, The Netherlands) allowing both mucosal and serosal sampling and stimulation of human intestinal epithelial cells. Two weeks post confluency the monolayers were incubated in the luminal compartment with polyunsaturated fatty acids ARA (arachidonic acid; 5,8,11,14-eicosatetraenoic acid), DHA (cis-4,7,10,13,16,19 docosahexaenoic acid), EPA (eicosapentaenoic acid) or control palmitic (C 16:0) acid (Palm) (Sigma, St. Louis, USA). The latter procedure was chosen to mimic the in vivo administration route of the dietary compounds. Cells were incubated with ARA, DHA, EPA, GLA or palmitic acid for 0, 24, 48 and 72 hr at different concentrations (10 μM and 100 μM). Experiments were performed to evaluate basal barrier integrity. The epithelial barrier function was determined by measuring the transepithelial resistance (TER, Ω.cm^2) was measured by epithelial volt-ohm meter (EVOM; World Precision Instruments, Germany) and permeability for 4 kD FITC dextran (paracellular permeability marker, Sigma, USA). Resistance (. Epithelial permeability for 4 kDa FITC-dextran was determined as follows. Prior to dextran fluxes the medium was refreshed with culture medium without phenol red for one hour followed by addition of 5 μl (stock 100 mg/ml) 4 kDa FITC-dextran to the lumenal compartment. After 30 min incubation 100 μl sample was collected from the serosal compartment and the fluorescent signal measured at excitation wavelength 485 nm and emission 520 nm (FLUOstar Galaxy®, BMG Labtechnologies, USA). FITC-dextran fluxes were calculated as pmol FITC-dextran/cm^2/h. Statistical analyses were performed using the ANOVA (SPSS version 10).

[2] = tested on: intestinal epithelial cell lines T84 monolayers incubated with IL-4; assay: Effect of LC-PUFA on IL-4 mediated barrier disruption: TER and flux in T84 monolayers; type: cell-based, human; details: for Permeability (IL-4 Flux) / Resistance (IL-4 TER) / effect on IL-4 mediated barrier disruption (flux), in words: 100 μM; for Permeability (IL-4 Flux) / Resistance (IL-4 TER): 48 hr pre-incubation then 48 hr co-incubation with IL-4 2 ng/ml; for effect on IL-4 mediated barrier disruption (flux), in words: Table 2; for IL-4 mediated barrier destruction (Flux), FIG. 2 (in words): time and dose (10 μM and 100 μM) dependent, 4 kD dextran flux
Experimental: as §1
Monolayers (MC) of intestinal epithelial cell lines T84 (ATCC, USA) were cultured on transwell filters (Corning, Costar B V, The Netherlands) allowing both mucosal and serosal sampling and stimulation of human intestinal epithelial cells. Two weeks post confluency the monolayers were incubated in the presence of IL-4 (2 ng/ml, serosal compartment, Sigma, USA ) with or without polyunsaturated fatty acids ARA, DHA, GLA, EPA, or control palmitic acid (10 μM or 100 μM, mucosal compartment, Sigma, St. Louis, USA). Cells were pre-incubated with GLA, ARA, DHA, EPA, or palmitic acid for 48 hr prior to the IL-4 incubation. The co-incubation of PUFA's and palmetic acid with IL-4 was continued for another 48 hr; while culture medium and additives were changed every 24 hr. The epithelial barrier function was determined by measuring the transepithelial resistance (TER) and permeability as described in example 1. Statistical evaluation was performed as described in example 1.

[3] = tested on: MUC-2 expression in intestinal epithelial T84 cells; details: 24 h, 0.025-4.0 mM, MC T84 and CC T84, compared to propionate and butyrate

Structure (SMILES): CCCCCC=CCC=CCC=CCC=CCCCC(=O)O [ARA, 5,8,11,14-eicosatetraenoic acid]
- effect on epithelial resistance (in words) [1]: improve epithelial resistance
- effect on molecular flux (in words) [1]: reduce the molecular flux
- basal barrier integrity (TER), FIG. 1 (in words) [1]: increased resistance
- Permeability (IL-4 Flux) [2]: 273 ↓ pmol FITC-dextran/cm^2/h
- Resistance (IL-4 TER) [2]: 337 ↑ Ω.cm^2
- effect on IL-4 mediated barrier disruption (flux), in words [2]: inhibit the increased flux caused by IL-4
- IL-4 mediated barrier destruction (Flux), FIG. 2 (in words) [2]: decreased 4 kD dextran flux

Structure (SMILES): CCC=CCC=CCC=CCC=CCC=CC/C=C\CCC(=O)O [DHA, cis-4,7,10,13,16,19 docosahexaenoic acid]
- effect on epithelial resistance (in words) [1]: improve epithelial resistance
- effect on molecular flux (in words) [1]: reduce the molecular flux
- basal barrier integrity (TER), FIG. 1 (in words) [1]: increased resistance
- Permeability (IL-4 Flux) [2]: 304 ↓ pmol FITC-dextran/cm^2/h
- Resistance (IL-4 TER) [2]: 328 ↑ Ω.cm^2
- effect on IL-4 mediated barrier disruption (flux), in words [2]: inhibit the increased flux caused by IL-4
- IL-4 mediated barrier destruction (Flux), FIG. 2 (in words) [2]: decreased 4 kD dextran flux

Structure (SMILES): CC/C=C\C/C=C\C/C=C\C/C=C\C/C=C\CCCC(=O)O [EPA, eicosapentaenoic acid]
- Permeability (IL-4 Flux) [2]: 236 ↓ pmol FITC-dextran/cm^2/h
- Resistance (IL-4 TER) [2]: 375 ↑ Ω.cm^2

Structure (SMILES): CCCCC/C=C\C/C=C\C/C=C\CCCCC(=O)O [GLA, gamma linolenic acid]
- effect on epithelial resistance (in words) [1]: improve epithelial resistance
- effect on molecular flux (in words) [1]: reduce the molecular flux
- basal barrier integrity (TER), FIG. 1 (in words) [1]: increased resistance
- Permeability (IL-4 Flux) [2]: 360 ↓ pmol FITC-dextran/cm^2/h
- Resistance (IL-4 TER) [2]: 331 ↑ Ω.cm^2
- effect on IL-4 mediated barrier disruption (flux), in words [2]: inhibit the increased flux caused by IL-4
- IL-4 mediated barrier destruction (Flux), FIG. 2 (in words) [2]: decreased 4 kD dextran flux

Structure (SMILES): CCCCCCCCCCCCCCCC(=O)O [Palmitic acid, palmitic acid, reference compound]
- effect on epithelial resistance (in words) [1]: opposite effects
- effect on molecular flux (in words) [1]: opposite effects
- effect on IL-4 mediated barrier disruption (flux), in words [2]: detrimental effect

Structure (SMILES): CC(=O)O [acetate]
- stimulating MUC-2 expression (mucus production), FIG. 4 (in words) [3]: more potent
